From patent EP4703362A1 (Chengdu Sibeibo Pharmaceutical Technology Co., Ltd, priority 2023, dated 2024) come the findings set out here.

The target in one test is T1, CGRP receptor complex (Homo sapiens, UniProt O60894+Q16602).
T1 construct: host or cells: SK-N-MC
T1 sequence (Q16602 23-461): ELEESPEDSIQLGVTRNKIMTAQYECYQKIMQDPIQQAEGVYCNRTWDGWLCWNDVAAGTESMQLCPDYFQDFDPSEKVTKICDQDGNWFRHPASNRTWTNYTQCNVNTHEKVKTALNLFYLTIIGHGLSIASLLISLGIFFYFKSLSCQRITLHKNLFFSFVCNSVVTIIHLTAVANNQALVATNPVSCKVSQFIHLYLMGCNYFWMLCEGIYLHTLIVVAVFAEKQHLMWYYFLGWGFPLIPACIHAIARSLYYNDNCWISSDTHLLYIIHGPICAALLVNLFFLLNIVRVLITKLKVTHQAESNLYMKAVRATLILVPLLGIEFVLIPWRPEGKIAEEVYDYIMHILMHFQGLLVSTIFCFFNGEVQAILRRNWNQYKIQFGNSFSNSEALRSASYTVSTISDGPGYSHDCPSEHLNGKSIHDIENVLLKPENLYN
T1 sequence (O60894 27-148): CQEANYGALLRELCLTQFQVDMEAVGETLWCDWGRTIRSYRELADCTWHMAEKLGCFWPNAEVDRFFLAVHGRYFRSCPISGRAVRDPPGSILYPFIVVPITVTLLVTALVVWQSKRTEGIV
Kind of test: determination of cell functional antagonism - cAMP determination. Type of test: cell-based.
Details: not given
The method, then: 1.Experimental principle A CGRP receptor complex was coupled with Gs in G protein, the combination of CGRP and CGRP receptor complex led to Gs activation, and cAMP (3',5'-cyclic adenosine monophosphate) was produced. 2.Experimental purpose The ability of the compound of the present invention to inhibit CGRP-stimulated cAMP formation in SK-N-MC cells was determined. 3.Experimental materials 3.1Experimental cell line: SK-N-MC (neuroepithelioma cells) from National Science and Technology Infrastructure - Biomedical Materials and Cell Resources. 3.2Reagents and consumables
4.Experimental steps • 4.1Cell preparation: The SK-N-MC cells were resuscitated and cultured in advance, and a cell confluence degree should be 70%-80% before use. • 4.2A sample dilution, a tested compound and α-CGRP (human) were prepared. • 4.3Cell seeding and drug effect: The SK-N-MC cells were digested, centrifuged, then resuspended with the sample dilution, and inoculated into a 384-well plate. Each well was added with the α-CGRP (human) and the tested compound respectively, and blown and mixed evenly. The well plate was adhered with a sealing film, and placed on an enzyme-labeled incubator to incubate at 25°C. • 4.4cAMP determination: carried out according to LANCE Ultra cAMP Kit specification Eu-cAMP tracer and ULight-anti-cAMP working solutions were prepared in the dark, respectively added into the well plate, and blown and mixed evenly.
Broadly, the IC50 is the point on the concentration scale where inhibition reaches its midpoint. With `Cc1cc(C[C@@H](NC(=O)N2CCC(c3cc4c([nH]c3=O)CCC4(C)C)CC2)C(=O)N2CCN(C3CCN(C)CC3)CC2)cc2cn[nH]c12` [Example 7], the IC50 came out at 6.02 nM. Consider `Cc1cc(C[C@@H](NC(=S)N2CCC(c3cc4c([nH]c3=O)SCC4)CC2)C(=O)N2CCN(C3CCN(C)CC3)CC2)cc2cn[nH]c12` [Example 16], for which the IC50 turned out to be 0.71 nM. `Cc1cc(C[C@@H](NC(=O)N2CCC(c3cc4c([nH]c3=O)SCC4)CC2)C(=O)N2CCC(C)(N3CCCCC3)CC2)cc2cn[nH]c12` [Example 22, (R)-N-(3-(7-methyl-1H-indazole-5-yl)-1-(4'-methyl-[1,4'-bipiperidine]-1'-yl)-1-oxopropan-2-yl)-4-(6-oxo-2,3,6,7-tetrahydrothieno[2,3-b]pyridine-6-yl)piperidine-1-formamide]: the IC50 worked out at 0.81 nM. In the case of `Cc1cc(C[C@@H](NC(=S)N2CCC(c3cc4c([nH]c3=O)SCCC4)CC2)C(=O)N2CCN(C3CCN(C)CC3)CC2)cc2cn[nH]c12` [Example 23], the half-maximal inhibitory concentration (IC50) was found to be 1.12 nM. On to `Cc1cc(C[C@@H](NC(=O)N2CCC(c3cc4c([nH]c3=O)[S+]([O-])CCC4)CC2)C(=O)N2CCN(C3CCN(C)CC3)CC2)cc2cn[nH]c12` (stereo partly drawn) [Example 32, N-((R)-3-(7-methyl-1H-indazole-5-yl)-1-(4-(1-methylpiperidine-4-yl)piperazine-1-yl)-1-oxopropan-2-yl)-4-(1-oxidation-7-oxo-3,4,7,8-tetrahydro-2H-thiopyrano[2,3-b]pyridine-6-yl)pipe ridine-1-formamide], for which the half-inhibitory concentration (IC50) stood at 0.29 nM. Regarding `Cc1cc(C[C@@H](NC(=O)N2CCC(c3cc4c([nH]c3=O)SCC43CC3)CC2)C(=O)N2CCN(C3CCN(C)CC3)CC2)cc2cn[nH]c12` [Example 33, (R)-N-(3-(7-methyl-1H-indazole-5-yl)-1-(4-(1-methylpiperidine-4-yl)piperazine-1-yl)-1-oxopropan-2-yl)-4-(6'-oxo-6',7'-dihydro-2'H-spiro[cyclopropane-1,3'-thieno][2,3-b]pyridine-5'-yl)piperidine-1-formamide], the concentration for half-maximal inhibition (IC50) stood at 0.37 nM. In the case of `Cc1cc(C[C@@H](NC(=O)N2CCC(c3cc4c([nH]c3=O)[S+]([O-])CC4)CC2)C(=O)N2CCN(C3CCN(C)CC3)CC2)cc2cn[nH]c12` (stereo partly drawn) [Example 35, N-((R)-3-(7-methyl-1H-indazole-5-yl)-1-(4-(1-methylpiperidine-4-yl)piperazine-1-yl)-1-oxopropan-2-yl)-4-(1-oxidation-6-oxo-2,3,6,7-tetrahydrothieno[2,3-b]pyridine-5-yl)piperidine-1-formamide], the IC50 was determined as 0.69 nM. As to `Cc1cc(C[C@@H](NC(=O)N2CCC(c3cc4c([nH]c3=O)SCC4)CC2)C(=O)N2CC3CC2CC3N2CCCCC2)cc2cn[nH]c12` (some centres unmarked) [Example 36], the IC50 amounted to 4.61 nM.

On to `Cc1cc(CC(OC(=O)N2CCC(c3cc4c([nH]c3=O)SCCC4)CC2)C(=O)N2CCN(C3CCN(C)CC3)CC2)cc2cn[nH]c12` (centres unmarked) [Example 41], for which the IC50 turned out to be 0.38 nM.

Still in this test, the particulars now being: inhibition of CGRP-stimulated cAMP formation in SK-N-MC cells.
As for `Cc1cc(C[C@@H](NC(=O)N2CCC(c3cc4c([nH]c3=O)CSCC4)CC2)C(=O)N2CCN(C3CCN(C)CC3)CC2)cc2cn[nH]c12` [Example 13, (R)-N-(3-(7-methyl-1H-indazole-5-yl)-1-(4-(1-methylpiperidine-4-yl)piperazine-1-yl)-1-oxopropan-2-yl)-4-(2-oxo-2,5,6,8-tetrahydro-1H-thiopyrano[3,4-b]pyridine-3-yl)piperidine-1-for mamide], the IC50 came out at 1.44 nM.

For `Cc1cc(C[C@@H](NC(=O)N2CCN(c3cc4c([nH]c3=O)SCCC4)CC2)C(=O)N2CCN(C3CCN(C)CC3)CC2)cc2cn[nH]c12` [Example 18, (R)-N-(3-(7-methyl-1H-indazole-5-yl)-1-(4-(1-methylpiperidine-4-yl)piperazine-1-yl)-1-oxopropan-2-yl)-4-(7-oxo-3,4,7,8-tetrahydro-2H-thiopyrano[2,3-b]pyridine-6-yl)piperazine-1-for mamide], the IC50 turned out to be 0.95 nM.

The test is the same for the next values; noted with them: inhibition of CGRP-stimulated cAMP formation in SK-N-MC cells; read-out: IC50.
`Cc1cc(C[C@@H](NC(=O)N2CCC(c3cc4c([nH]c3=O)SCC4(C)C)CC2)C(=O)N2CCN(C3CCN(C)CC3)CC2)cc2cn[nH]c12` [Example 2, (R)-4-(3,3-dimethyl-6-oxo-2,3,6,7-tetrahydrothieno[2,3-b]pyridine-5-yl)-N-(3-(7-methyl-1H-indazole-5-yl)-1-(4-(1-methylpiperidine-4-yl)piperazine-1-yl)-1-oxopropan-2-yl)piperidine-1-formamide]: the half-maximal inhibitory concentration (IC50) turned out to be 0.65 nM. With `Cc1cc(C[C@@H](NC(=O)N2CCC(c3cc4c([nH]c3=O)CSC4)CC2)C(=O)N2CCN(C3CCN(C)CC3)CC2)cc2cn[nH]c12` [Example 11, (R)-N-(3-(7-methyl-1H-indazole-5-yl)-1-(4-(1-methylpiperidine-4-yl)piperazine-1-yl)-1-oxopropan-2-yl)-4-(2-oxo-1,2,5,7-tetrahydrothieno[3,4-b]pyridine-3-yl)piperidine-1-formamide], the IC50 was found to be 7.83 nM. As for `Cc1cc(C[C@@H](NC(=O)N2CCC(c3cc4c([nH]c3=O)CCS4)CC2)C(=O)N2CCN(C3CCN(C)CC3)CC2)cc2cn[nH]c12` [Example 17, (R)-N-(3-(7-methyl-1H-indazole-5-yl)-1-(4-(1-methylpiperidine-4-yl)piperazine-1-yl)-1-oxopropan-2-yl)-4-(5-oxo-2,3,4,5-tetrahydrothieno[3,2-b]pyridine-6-yl)piperidine-1-formamide], the IC50 stood at 15.4 nM.

Turning to `Cc1cc(C[C@@H](NC(=O)N2CCC(c3cc4c([nH]c3=O)SCC4)CC2)C(=O)N2CCC(N3CCN(C)CC3)CC2)cc2cn[nH]c12` [Example 19, (R)-N-(3-(7-methyl-1H-indazole-5-yl)-1-(4-(4-methylpiperazine-1-yl)piperidine-1-yl)-1-oxopropan-2-yl)-4-(6-oxo-2,3,6,7-tetrahydrothieno[2,3-b]pyridine-5-yl)piperidine-1-formamide], the half-maximal inhibitory concentration (IC50) is 0.39 nM.

Regarding `Cc1cc(C[C@@H](NC(=O)N2CCC(c3cc4c([nH]c3=O)SCC4)CC2)C(=O)N2CCC(N3CCCCC3)CC2)cc2cn[nH]c12` [Example 20, (R)-N-(1-([1,4'-bipiperidine]-1'-yl)-3-(7-methyl-1H-indazole-5-yl)-1-oxopropan-2-yl)-4-(6-oxo-2,3,6,7-tetrahydrothieno[2,3-b]pyridine-5-yl)piperidine-1-formamide], the IC50 was found to be 0.37 nM.

As for `Cc1cc(C[C@@H](NC(=O)N2CCC(c3cc4c([nH]c3=O)SCCC4)CC2)C(=O)N2CCC(C)(N3CCCCC3)CC2)cc2cn[nH]c12` [Example 24, (R)-N-(3-(7-methyl-1H-indazole-5-yl)-1-(4'-methyl-[1,4'-bipiperidine]-1'-yl)-1-oxopropan-2-yl)-4-(7-oxo-3,4,7,8-tetrahydro-2H-thiopyrano[2,3-b]pyridine-6-yl)piperidine-1-formamide], the IC50 is 1.02 nM.

For `Cc1cc(C[C@@H](NC(=O)N2CCC(c3cc4c([nH]c3=O)SCCC4)CC2)C(=O)N2CCC(N3CCCCC3)CC2)cc2cn[nH]c12` [Example 26, (R)-N-(1-([1,4'-bipiperidine]-1'-yl)-3-(7-methyl-1H-indazole-5-yl)-1-oxopropan-2-yl)-4-(7-oxo-3,4,7,8-tetrahydro-2H-thiopyrano[2,3-b]pyridine-6-yl)piperidine-1-formamide], the IC50 turned out to be 0.1 nM. Regarding `Cc1cc(CC(CC(=O)N2CCC(c3cc4c([nH]c3=O)SCCC4)CC2)C(=O)N2CCN(C3CCN(C)CC3)CC2)cc2cn[nH]c12` (centres unmarked) [Example 27, 2-((7-methyl-1H-indazole-5-yl)methyl)-1-(4-(1-methylpiperidine-4-yl)piperazine-1-yl)-4-(4-(7-oxo-3,4,7,8-tetrahydro-2H-thiopyrano[2,3-b]pyridine-6-yl)piperidine-1-yl)butane-1,4-dione], the IC50 was 1.24 nM. Regarding `Cc1cc(CC(CC(=O)N2CCC(c3cc4c([nH]c3=O)SCC4)CC2)C(=O)N2CCN(C3CCN(C)CC3)CC2)cc2cn[nH]c12` (centres unmarked) [Example 31, 2-((7-methyl-1H-indazole-5-yl)methyl)-1-(4-(1-methylpiperidine-4-yl)piperazine-1-yl)-4-(4-(6-oxo-2,3,6,7-tetrahydrothieno[2,3-b]pyridine-5-yl)piperidine-1-yl)butane-1,4-dione], the IC50 worked out at 2.05 nM. On the same count and under the same terms, then `Cc1cc(C[C@@H](NC(=O)N2CCC(c3cc4c([nH]c3=O)SCCC4)CC2)C(=O)N2C3CCC2CC(N2CCCCC2)C3)cc2cn[nH]c12` (stereo partly drawn) [Example 39, N-((2R)-3-(7-methyl-1H-indazole-5-yl)-1-oxo-1-(3-(piperidine-1-yl)-8-azabicyclo[3.2.1]octane-8-yl)propan-2-yl)-4-(7-oxo-3,4,7,8-tetrahydro-2H-thiopyrano[2,3-b]pyridine-6-yl)piperidine-1-formamide], with 0.13 nM; and `Cc1cc(C[C@@H](NC(=O)N2CCC(c3cc4c([nH]c3=O)SCCC4)CC2)C(=O)N2CC3CC2CC3N2CCCCC2)cc2cn[nH]c12` (stereo partly drawn) [Example 40, N-((2R)-3-(7-methyl-1H-indazole-5-yl)-1-oxo-1-(5-(piperidine-1-yl)-2-azabicyclo[2.2.1]hept-2-yl)propan-2-yl)-4-(7-oxo-3,4,7,8-tetrahydro-2H-thiopyrano[2,3-b]pyridine-6-yl)piperidine-1-formamide], with 3.47 nM.

The test is the same for the next values; noted with them: inhibition of CGRP-stimulated cAMP formation, statement of the conclusion.
As to `Cc1cc(C[C@@H](NC(=O)N2CCC(c3cc4c([nH]c3=O)SCC4(C)C)CC2)C(=O)N2CCN(C3CCN(C)CC3)CC2)cc2cn[nH]c12` [Example 2, (R)-4-(3,3-dimethyl-6-oxo-2,3,6,7-tetrahydrothieno[2,3-b]pyridine-5-yl)-N-(3-(7-methyl-1H-indazole-5-yl)-1-(4-(1-methylpiperidine-4-yl)piperazine-1-yl)-1-oxopropan-2-yl)piperidine-1-formamide], the “IC50 values / inhibitory activities (in words)” value is recorded as “pM level”.
